Test results from patent US4839371A, “3-aralkyl-2-mercaptoyridines as dopamine-β-hydroxylase inhibitors” (SmithKline Beckman Corporation, priority 1987, dated 1989).
Where two headings read alike, the source gives them in different places.

Tests used:
DBH [1] = conditions: cited from earlier work
[2] = tested on: spontaneously hypertensive rats; test: mean arterial blood pressure in spontaneously hypertensive rats; assay type: in vivo; conditions: 50 mg/kg intraperitoneally
From the text: Maximal blood pressure reduction was approximately 50 to 55 mm Hg.

DBH [3] = target: T1, DBH (Bos taurus, UniProt P15101); test: in vitro DBH inhibition (conversion of tyramine to octopamine, spectrophotometric at 330 nm)
T1 sequence (P15101 1-610): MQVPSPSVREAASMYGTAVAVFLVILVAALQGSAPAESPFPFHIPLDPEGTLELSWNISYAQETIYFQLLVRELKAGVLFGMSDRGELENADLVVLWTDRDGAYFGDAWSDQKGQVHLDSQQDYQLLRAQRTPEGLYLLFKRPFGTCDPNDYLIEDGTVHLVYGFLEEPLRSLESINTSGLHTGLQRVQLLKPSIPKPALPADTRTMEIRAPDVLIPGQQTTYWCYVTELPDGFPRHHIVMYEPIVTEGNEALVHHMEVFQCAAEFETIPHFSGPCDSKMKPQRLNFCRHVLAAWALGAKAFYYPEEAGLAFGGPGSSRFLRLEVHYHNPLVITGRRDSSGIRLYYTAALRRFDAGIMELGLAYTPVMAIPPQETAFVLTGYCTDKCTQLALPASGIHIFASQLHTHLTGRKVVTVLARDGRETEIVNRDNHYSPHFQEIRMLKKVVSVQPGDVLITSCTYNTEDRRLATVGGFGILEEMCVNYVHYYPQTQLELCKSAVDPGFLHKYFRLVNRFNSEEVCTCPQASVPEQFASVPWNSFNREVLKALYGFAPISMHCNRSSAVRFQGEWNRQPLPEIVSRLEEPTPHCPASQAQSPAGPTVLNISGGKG

[4] = patients, Friedman et al., Psychosomatic Med. 40, 107 (1978), significance uncertain

| SMILES | lowered DBH levels in treated patients (DBH [1]; [4]) | IC50 (DBH [3]) [µM] | further results |
| --- | --- | --- | --- |
| C[C@](N)(Cc1ccc(O)c(O)c1)C(=O)O [alpha-methyl-DOPA] | lowered DBH levels |  |  |
| COC(=O)[C@H]1[C@H]2C[C@@H]3c4[nH]c5cc(OC)ccc5c4CCN3C[C@H]2C[C@@H](OC(=O)c2cc(OC)c(OC)c(OC)c2)[C@@H]1OC [reserpine] | lowered DBH levels |  |  |
| Fc1cc(F)cc(Cc2cccnc2S)c1 |  | 134 | blood pressure reduction compared to vehicle-treated controls ([2]; monitored for 260 minutes): significant blood pressure reductions; time after treatment to significant blood pressure reductions ([2]; within approximately): ≤ 30 min |
| Fc1cccc(Cc2cccnc2S)c1 [3-(3-Fluorobenzyl)-2-mercaptopyridine] |  | 500 |  |
| CC(C)NCC(O)COc1cccc2ccccc12 (stereo not shown) [propranolol] |  |  | lowered DBH levels in treated patients (DBH [1]; human, in vivo): not |
